Measurements from patent EP4711370A1, “DEUTERATED CAMPTOTHECIN COMPOUND, AND PREPARATION THEREFOR AND USE THEREOF” (Shanghai Qilu Pharmaceutical Research and Development …, priority 2023, dated 2024).

Columns and labels:
[1] = system: Calu-3 (human lung adenocarcinoma cells); assay: In vitro antitumor activity (cell proliferation inhibition, CellTiter-Glo); type: cell-based; details: Calu-3 cells, 48 hours of incubation
Excerpt: (§1) Objective: To detect the in vitro inhibitory activity of the compounds of the present disclosure against NCI-N87 (human gastric cancer cells), Calu-3 (human lung adenocarcinoma cells), MDA-MB-453 (human breast cancer cells), KPL-4 (human breast cancer cells), or MDA-MB-468 (human breast cancer cells).
(§2) Tumor cells in the logarithmic growth phase, including NCI-N87 (source: ATCC, catalog number: CRL-5822), Calu-3 (source: ATCC, catalog number: HTB-55), MDA-MB-453 (source: ATCC, catalog number: HTB-131), KPL-4 (source: Nanjing Cobioer Biosciences, catalog number: CBP60379), or MDA-MB-468 (source: ATCC, catalog number: HTB-132), were seeded into cell plates at a density of 5,000 cells/well. The cell plates were then incubated in a 37°C, 5% CO2 cell culture incubator for 12-16 hours. 100 µL of sample (starting at 10 µM, 4-fold dilution, 10 concentrations) was added to each well. After gentle shaking, the plates were placed in the incubator for further incubation. After 48 hours of incubation, 70 µL of CellTiter-Glo™ (Promega, catalog number: G7572) working solution was added, gently shaken to lyse the cells, and the plates were read on a microplate reader. The cell proliferation inhibition rate was calculated using the following formula: cell proliferation inhibition rate = (1-sample well/control well)×100%. GraphPad Prism 8.0 software was used to plot the Log value of sample concentration as the x-axis and Cytotoxicity% as the y-axis. The data were analyzed by Nonlinear regression (curve fit) to obtain the IC50 values for each sample, with specific results shown in Tables 1-1 and 1-2. Table 1-1. In vitro activity test results of the compounds of the present disclosure

[2] = system: MDA-MB-453 (human breast cancer cells); assay: as above; type: cell-based; details: MDA-MB-453 cells, 48 hours of incubation
Excerpt: as §1, §2

[3] = system: MDA-MB-468 (human breast cancer cells); assay: as above; type: cell-based; details: MDA-MB-468 cells, 48 hours of incubation
Excerpt: as §1, §2

[4] = system: NCI-N87 (human gastric cancer cells); assay: as above; type: cell-based; details: 48 hours of incubation
Excerpt: as §1, §2

Pharmacokinetics in mice = type: in vivo, Balb/c mice; details: 3 mg/kg, Mouse PK (IV, 3 mpk), single injection, plasma
Excerpt: Objective: To evaluate the pharmacokinetic characteristics of the compounds of the present disclosure in mice.
Balb/c mice were taken, with 12 mice per group (half male and half female), randomly grouped, and administered a single injection of the sample (Formulation A: 5% DMSO + 95% (15% sulfobutyl-β-cyclodextrin-normal saline), Formulation B: 5% DMSO-10% Solutol HS 15-85% normal saline, diluted according to the dose). Blood samples were collected at crossover time points, including before administration and at 5 min, 30 min, 1 h, 2 h, 4 h, 6 h, 8 h, 10 h, and 24 h after administration. Plasma was collected, and the sample concentration in plasma was detected by LC-MS. Table 2-1. PK parameters of the compounds of the present disclosure in mice

Pharmacokinetics in rats = type: in vivo, SD rats; details: 3 mg/kg, Rat PK (IV, 3 mpk), single injection, plasma, Formulation A
Protocol: Objective: To evaluate the pharmacokinetic characteristics of the compounds of the present disclosure in rats.
SD rats (purchased from Beijing Vital River Laboratory Animal Technology Co., Ltd.) were used, with 6 rats per group (half male and half female), randomly grouped. A single injection of the sample (Formulation A: 5% DMSO + 95% (15% sulfobutyl-β-cyclodextrin-normal saline), diluted according to the dose) was administered. Blood samples were collected at crossover time points: before administration and at 5 min, 30 min, 1 h, 2 h, 4 h, 6 h, 8 h, 10 h, and 24 h after administration. Plasma was collected, and the sample concentration in plasma was detected by LC-MS. Table 3-1. PK parameters of the compounds of the present disclosure in rats

[5] = Repeated administration toxicity experiment in rats; type: in vivo, SD rats; details: for Clinical observation: course after ataxia / Clinical observation: animals showed ataxia immediately after administration / Body weight / food intake / Clinical observation: died during recovery (among animals with ataxia): tail vein injection for 7 consecutive days; for Clinical observation: animals showed ataxia immediately after administration / Clinical observation: died during recovery (among animals with ataxia): main trial group + TK group; for gross dissection: lungs: gross dissection on D8 after administration; for Body weight / food intake: 0.3 mg/kg and 1.0 mg/kg, Compound 2 stated relative to Dxd at the same dose
Protocol: Test sample preparation: The test sample was weighed according to the predetermined weight into a glass vial. First, 1 mL of DMSO was added and mixed until the test sample was dissolved, followed by the addition of 1 mL of Solutol HS-15.
SD rats (purchased from Beijing Vital River) were used as test animals. […] During the acclimation period, one cage-side observation was conducted daily; during the administration period, all animals were subjected to clinical observations twice daily (morning and afternoon). Reactions in various aspects, including the skin, fur, eyes (sclera), ears, nose, oral cavity, chest, abdomen, urogenital area, limbs, as well as respiration, movement, urination, defecation (including urine and feces color), and behavioral changes, were recorded. Daily weight data of the main test group animals were documented. For animals scheduled for dissection, terminal body weight (fasted) was measured before dissection. The food intake of the test animals was also recorded.
At the end of the administration, gross dissection was performed on D8 after administration.

[6] = In vitro plasma stability; type: in vitro ADME; details: 37°C, 5 µM
Protocol: 398 µL of plasma was taken and preheated to 37°C, then co-incubated for 15 minutes. 2 µL of the sample solution was added to the plasma to prepare a final sample concentration of 5 µM. The above solution was co-incubated at 37°C, and 50 µL aliquots were taken at 0, 15, 30, 60, and 120 minutes, followed by the addition of 450 µL of ice-cold acetonitrile (containing the internal standard). The solution was vortexed for 10 minutes, centrifuged, and the remaining content of the parent substrate was detected by the LC-MS/MS method. For specific results, refer to Table 4-1. Table 4-1. Plasma stability of the compounds of the present disclosure

[7] = system: KPL-4 (human breast cancer cells); assay: In vitro antitumor activity (cell proliferation inhibition, CellTiter-Glo); type: cell-based; details: KPL4, KPL-4 cells, 48 hours of incubation
Excerpt: as §1, §2

[8] = in vivo, Formulation A (5% DMSO + 95% (15% sulfobutyl-β-cyclodextrin-normal saline))
[9] = in vivo, Formulation B (5% DMSO-10% Solutol HS 15-85% normal saline)
[10] = both sexes, Balb/c, Formulation A (5% DMSO + 95% (15% sulfobutyl-β-cyclodextrin-normal saline))

| SMILES | IC50 [1] | IC50 [2] | IC50 [3] | IC50 [4] | Cmax (Pharmacokinetics in mice; [9]) | half-life (Pharmacokinetics in mice; [9]) | Residual content of parent toxin at 120 minutes (relative to 0 minutes) ([6]; CD1 mouse plasma) | Residual content of parent toxin at 120 minutes (relative to 0 minutes) ([6]; Human plasma) | other results |
| --- | --- | --- | --- | --- | --- | --- | --- | --- | --- |
| [2H]C1([2H])OC(=O)[C@](O)(CC)c2cc3n(c(=O)c21)Cc1c-3nc2cc(F)c(C)c3c2c1[C@@H](NC(=O)CO)CC3 [Compound 2] | 27.1 nM | 114 nM | 0.98 nM | 7.17 nM |  |  |  |  | Cmax (Pharmacokinetics in mice; [8]): 449 ng/mL; half-life (Pharmacokinetics in mice; [8]): 27.3 min; AUC(0-inf) (Pharmacokinetics in rats; in vivo): 218 ng·h/mL; Cmax (Pharmacokinetics in rats; in vivo): 406 ng/mL; clearance (Pharmacokinetics in rats; in vivo): 235 mL/min/kg; half-life (Pharmacokinetics in rats; in vivo): 39.7 min; Clinical observation: course after ataxia ([5]; 0.3 mpk dose group): then gradually recovered; Clinical observation: animals showed ataxia immediately after administration ([5]; 0.3 mpk dose group): 13%; Clinical observation: course after ataxia ([5]; 1 mpk dose group): then gradually recovered; Clinical observation: animals showed ataxia immediately after administration ([5]; 1 mpk dose group): 25%; average food intake, ♀ rats ([5]; female rats, compared with the control (Dxd) group at the same dose): For ♀ rats, the average food intake in the Compound 2 group was higher than that in the control group at the same dose;; gross dissection: lungs [5]: no such pathological changes were found in any dose group; Body weight [5]: At the same dose, the effects of Compound 2 and Dxd on rat body weight and food intake were generally comparable;; food intake [5]: At the same dose, the effects of Compound 2 and Dxd on rat body weight and food intake were generally comparable; |
| [2H]C1([2H])OC(=O)[C@](O)(CC)c2cc3n(c(=O)c21)Cc1c-3nc2cc(F)c(C)c3c2c1[C@@H](NC(=O)C[C@H](C)O)CC3 [Compound 6] | 46.6 nM | 121 nM | 3.11 nM | 13.3 nM | 2580 ng/mL | 40.7 min | 105.93% | 94.89% |  |
| [2H]C1([2H])OC(=O)[C@](O)(CC)c2cc3n(c(=O)c21)Cc1c-3nc2cc3c(cc2c1CCCO)OCO3 [Compound 12] |  |  | 1.7 nM | 7.29 nM |  |  |  |  | IC50 [7]: 7.05 nM |
| [2H]C1([2H])OC(=O)[C@](O)(CC)c2cc3n(c(=O)c21)Cc1c-3nc2cc(F)c(C)c3c2c1[C@@H](NC(=O)[C@H](O)C1CC1)CC3 [Compound 3] | 17.1 nM | 40.3 nM | 0.97 nM | 4.37 nM | 4300 ng/mL | 36.4 min | 104.97% | 105.54% |  |
| [2H]C1([2H])OC(=O)[C@](O)(CC)c2cc3n(c(=O)c21)Cc1c-3nc2cc(F)c(C)c3c2c1[C@@H](NC(=O)C[C@@H](C)O)CC3 [Compound 5] | 32.9 nM | 94.6 nM | 1.3 nM | 9.18 nM | 3520 ng/mL | 40.4 min | 96.02% | 107.73% |  |
| [2H]C1([2H])OC(=O)[C@](O)(CC)c2cc3n(c(=O)c21)Cc1c-3nc2cc(F)c(C)c3c2c1[C@@H](NC(=O)[C@@H](O)C1CC1)CC3 [Compound 4] | 19.3 nM | 55.3 nM | 0.88 nM | 4.06 nM |  |  |  |  |  |
| CC[C@@]1(O)C(=O)OCc2c1cc1n(c2=O)Cc2c-1nc1cc(F)c(C)c3c1c2[C@@H](NC(=O)CO)CC3 [Dxd] |  |  |  |  |  |  |  |  | Cmax (Pharmacokinetics in mice; [10]): 521 ng/mL; half-life (Pharmacokinetics in mice; [10]): 70.2 min; AUC(0-inf) (Pharmacokinetics in rats; both sexes, SD): 352 ng·h/mL; Cmax (Pharmacokinetics in rats; both sexes, SD): 621 ng/mL; clearance (Pharmacokinetics in rats; both sexes, SD): 144 mL/min/kg; half-life (Pharmacokinetics in rats; both sexes, SD): 70.3 min; Clinical observation: course after ataxia ([5]; 0.3 mpk dose group): the other rats gradually recovered; Clinical observation: animals showed ataxia immediately after administration ([5]; 0.3 mpk dose group): 31%; Clinical observation: died during recovery (among animals with ataxia) ([5]; 0.3 mpk dose group): 40%; Clinical observation: course after ataxia ([5]; 1 mpk dose group): the other rats gradually recovered; Clinical observation: animals showed ataxia immediately after administration ([5]; 1 mpk dose group): 31%; Clinical observation: died during recovery (among animals with ataxia) ([5]; 1 mpk dose group): 40%; gross dissection: lungs [5]: Focal/punctate dark red discoloration was observed in the lungs of some deceased rats; Body weight [5]: Slow weight gain/weight loss;; food intake [5]: Decreased food intake |
